This note sets out measurements from patent US20250120988A1, “SMALL MOLECULE COMPOUND FOR TREATING ISCHEMIC STROKE, ITS PREPARATION METHOD, AND APPLICATION” (SHANGHAI SIXTH PEOPLE'S HOSPITAL, priority 2023, published 2025).

A short description of data set [1]: Pharmacokinetics of single intraperitoneal injection in mice (LC-MS/MS, plasma and brain tissue). It counts as in vivo, male C57BL/6J mice. To be noted: i.p. 30 mg/kg; for MRT last: read-out: MRT(0-t); for MRT inf: read-out: MRT(0-∞). The protocol: LC-MS/MS method was used to measure the concentration of LK-2 in plasma and brain tissue. LK-2 was dissolved in 0.9% saline to a concentration of 1 mg/ml. Blood samples were collected at 5 min, 15 min, 30 min, 1.0 h, 2.0 h, and 4.0 h time points into EDTA-coated tubes, then centrifuged at 2,000 g for 15 min to generate plasma samples. Brain tissue samples were collected after perfusion with saline through the left ventricle, and the brain tissue were diluted and homogenized with 5 volumes (w:v) of 0.9% NaCl. LC-MS/MS method for quantification of LK-2 in plasma and brain tissue samples was developed using LC-MS/MS-T_API4000 instrument. The general sample processing procedure is as follows. • 1) 30 μl plasma samples were divided, standard samples were calibrated with quality control, and single blank and double blank samples were added into 1.5 ml tubes, respectively. 40 μl brain tissue homogenate were added to each well of a 96-well plate, respectively, and standard samples were calibrated with quality control, single blank and double blank samples were aliquoted. • 2) Each sample (excluding double blanks) was mixed with 150 μl (plasma samples) or 200 μl (brain tissue homogenate) of internal standard solution [a 6-in-1 internal standard solution (100 ng/ml each of labetalol, tolbutamide, verapamil, dexamethasone, glipizide, and celecoxib dissolved in methanol) and 40 mM dibutyl acetic acid] to terminate the reaction (double blank samples were terminated with 40 mM dibutyl acetic acid in methanol). The mixture was then thoroughly vortexed for at least 15 s and centrifuged at 12000 g (plasma samples) or 3220 g (brain homogenate) at 4° C. for 15 minutes. • 3) 65 μl of the supernatant was evenly transferred into a 96-well plate and centrifuge at 3220 g, 4° C. for 5 minutes. All procedures were performed on wet ice. All the supernatant was directly injected for LC-MS/MS analysis. The chromatographic column was ACQUITY UPLC BEHC18 with 2.1×100 mm, 1.7 μm. The column temperature was at 40° C. and the flow rate was 0.4 mL/min. The mobile phase A was 0.001% NH3·H2O, 0.18 mM dibutylamine acetate aqueous solution, and mobile phase B was 10 mM N,O-dimethylhydroxylamine and 3 mM NH4OAc solution, acetonitrile/aqueous solution (v:v, 50:50). Standard curves were prepared by spiking compounds into control plasma and brain to determine drug concentrations. Pharmacokinetic parameters and average concentrations at each time point were calculated using DAS 2.0 software through non-compartmental analysis (NCA), as shown in Table 1.

Data set [2] concerns CHO cells transfected with ASIC1a. As to the kind of experiment: PI cell death staining of ASIC1a-transfected CHO cells treated with glutamate at pH 7. It counts as cell-based, Chinese hamster. As to conditions: 10 μM; 500 μM glutamate, pH 7, 1 hour. The protocol: Figure a illustrates cortical neurons staining from wild-type (ASIC1a+/+) and gene-deficient (ASIC1a−/−) mice primary cultures in the calcein-PI staining experiment. Blue green represents viable cells, and red represents dead cell nuclei. 10 μM CGS19755 and 10 μM LK-2 were added respectively in the cell culture medium under pH 7.0 conditions with OGD to be treated for 1 hour. Figure c illustrates, after being treated in the same experimental groups as Figure a, the analysis of each group of LDH of relative release levels. Figure d illustrates PI staining of ASIC1a-transfected CHO cells after 1 hour of treatment with pH 7.0 and 500 μM glutamate (Glu). […]
Taking into consideration that in addition to ASIC1a, neurons also express multiple membrane proteins that can be activated and lead to cell death during OGD, in order to more accurately verify that cell death is caused by glutamate activation of ASIC1a and that LK-2 indeed competitively antagonizes the glutamate so as to reduce cell death, we conducted the following experiment: CHO cells transfected with ASIC1a-GFP were divided into a control group (500 μM glutamate) and a drug intervention group (500 μM glutamate+10 μM LK-2). […] Live and dead cell nuclei were determined by observing under a 40× objective using excitation wavelengths of 488 nm and 546 nm. The number of stained cell nuclei was counted using Image-J software.

Where [3] appears, read: male, C57BL/6J, mouse, ip, Brain tissue.
Where [4] appears, read: male, C57BL/6J, mouse, ip, Plasma.

SMILES strings stand for the structures. Like-named read-outs stand apart in the source and are kept apart here.

In data set [1] (Brain tissue), `O=C(O)C1CN(C(c2ccccc2)P(=O)(O)O)CCN1` (centres unmarked) [LK-2] gave a CL of 634.03 ± 53.28 mL/min/kg and a V of 124.755 ± 15.127 L/kg. In data set [1] (Plasma), this molecule gave a CL of 7.13 ± 0.317 mL/min/kg and a V of 0.356 ± 0.021 L/kg. Moreover, the Kp in data set [1] (male, C57BL/6J, mouse, brain/plasma, ip, read-out: Brain/plasma AUC ratio) amounted to 0.0127 ± 0.0006. Further, in data set [1] (setting [3]), the AUC(0-inf) amounted to 793 ± 68 ng·h/mL, the AUC(0-t) is 523 ± 27.9 ng·h/mL, the maximum concentration (Cmax) worked out at 236 ± 31.9 ng/mL and the Tmax stood at 30 min. Moreover, in data set [1] (setting [3]), the half-life was 138 ± 26.5 min, the MRT last is 106 ± 4.68 min and the MRT inf amounted to 218 ± 36.7 min. Further, in data set [1] (setting [4]), the AUC(0-inf) is 70300 ± 3130 ng·h/mL, the AUC(0-t) came to 69800 ± 3120 ng·h/mL, the Cmax was determined as 92700 ± 8310 ng/mL and the Tmax turned out to be 30 min. Also, in data set [1] (setting [4]), the half-life is 34.6 ± 0.9 min, the MRT last is 41.6 ± 1.14 min and the MRT inf is 43.3 ± 1.08 min. The “reduction of death rate of transfected cells” value in data set [2] stood at 40%.
